This is an account of results in article PMC12032302, “A20 attenuates oxidized self-DNA-mediated inflammation in acute kidney injury” (Signal Transduction and Targeted Therapy, 2025).

The test system of assay [1] is A20. The experiment in a line: A20 protein expression in iBMDMs / BMDMs (immunoblot). In kind it is cell-based, mouse. The procedure: (§1) For immunoblot analysis of kidney tissue, total protein lysates were prepared from renal tissue, which was ground in liquid nitrogen and then added to lysis buffer in a Total Protein Extraction Kit (Signalway Antibody, Cat#PE001). Samples were centrifuged at 12,000 rpm for 15 min at 4 °C, and the supernatant was collected immediately. For immunoblot analysis of cells, cultured cells after treatment were lysed with lysis buffer, which was premixed with protease and phosphatase inhibitors (Signalway Antibody, Cat#PE001). The samples were centrifuged at 12,000 r/min for 15 min at 4 °C, and the supernatant was collected immediately. Ultimately, both types of protein samples were then mixed with 4× Laemmli loading buffer (Bio-Rad, Cat#1610747) and denatured by boiling at 95 °C for 5 min.
Prepared protein samples were subjected to 6-15% SDS polyacrylamide gels and separated according to the protein concentrations. Then, the protein bands were transferred to polyvinylidene difluoride (PVDF) membranes by a wet transfer apparatus (Bio-Rad, USA). […] The protein bands were detected with an enhanced chemiluminescence kit (Millipore, Cat#WBKLS0500) using a gel imaging system (Bio-Rad, USA) for visualization and standardization of the amount of protein loaded. α-Tubulin was used as the internal control.

Assay [2] deals with Tnfaip3 mRNA. Briefly: Tnfaip3 mRNA in iBMDMs (quantitative PCR). In kind it is cell-based, mouse. The following applies: ox-dsDNA90 or CDNs, BAY11-7082 1 μM, 4 h pretreated, Fig. 4j,k, n = 3. On the procedure: Total RNA was extracted from around 1 × 10^6 cultured cells per population and purified by employing an RNA simple Total RNA Kit (TIANGEN, Cat#DP419), Following column purification, RNA was immediately reversed to cDNA by implementing the PrimeScript reverse transcription reagent kit (Takara, RR047A) according to the manufacturer’s instructions. The concentration of RNA was measured with a NanoDrop 2000 (Thermo Fisher Scientific, USA). Reverse transcription polymerase chain reaction (qRT‒PCR) was performed using SYBR Premix Ex Taq (Takara, CAT#172-5124) in an ABI7500 real-time PCR system (Applied Biosystems, CA). The primer sequences are shown in Supplementary Table 2. Relative gene expression was presented as fold changes normalized by Gapdh using the 2^−ΔΔCt method.

For assay [3], the system named is AKI mice. Briefly: survival of AKI mice. The assay is classed as in vivo, mouse. Particulars: n = 10 per group. The procedure:
(§2) Aristolochic acid I sodium salt was dissolved in PBS to 1 mg/mL and injected intraperitoneally at a dose of 10 mg/kg (body weight) every 24 h for 3 days; cisplatin was dissolved in PBS to 1.5 mg/mL for one-time intraperitoneal 25 mg/kg injection; LPS (Sigma, Cat#L2630) was dissolved in PBS to 2.5 mg/mL for one-time intraperitoneal 25 mg/kg injection; deoxyribonuclease I (DNase I, Sigma, Cat#SLBV1446) was dissolved in PBS to 1 mg/mL and injected intraperitoneally at a dose of 10 mg/kg at 4 h before cisplatin or AA I injection and every 24 h after injection. Disulfiram (MedChemExpress, CAS:97-77-8) was diluted in corn oil to 12.5 mg/mL and injected 50 mg/kg intraperitoneally every 24 h after cisplatin or AA I administration. Cu(II) (Sigma, Cat#344419) was dissolved in PBS to 30 µg/mL and administered intraperitoneally 6 h before disulfiram at a dose of 0.15 mg/kg; TNF-α (Peprotech, Cat#315-01 A) was dissolved in PBS to 10 µg/mL and injected at 100 µg/kg once through the caudal vein 24 h before cisplatin injection. Metformin (Sigma, Cat#D150959) was dissolved in PBS to 5 mg/mL and injected intraperitoneally at a dose of 50 mg/kg 24 h before cisplatin or AA I injection and every 24 h after injection. MCC950 (MedChem Express, CAS:256373-96-3) was dissolved in PBS to 5 mg/mL and injected intraperitoneally at a dose of 50 mg/kg 12 h before cisplatin or AA I injection and every 12 h after injection; berberine (APExBIO, Cat#N1368) was dissolved in PBS to 5 mg/mL and 5 mg/kg injected intraperitoneally at 36, 24 and 12 h before cisplatin; A20-derived-peptide was dissolved in ddH2O to 3 mg/mL and injected intraperitoneally at a dose of 15 mg/kg 1 h before cisplatin. To supervise the effects of various treatments on survival time and rate, the mice were observed, and survival curves were generated. To investigate the specific mechanisms, whole blood was retrieved from the orbit, serum was separated through centrifugation on the 4th day, and the mice were then sacrificed by cervical dislocation. Mice were randomly assigned in experiments, while there was no blinding during the animal experiments.

Assay [4] relates to GSDMD cleavage in iBMDMs. Briefly: cleavage of GSDMD in iBMDMs after ox-self-DNA treatment (immunoblot). The assay is classed as cell-based, mouse. The following applies: AA-DNA with or without MCC950, Fig. 3i. On the procedure: as §1, with “Ultimately, both types of protein samples were then mixed with 4× Laemmli loading buffer (Bio-Rad, Cat#1610747) and denatured by boiling at 95 °C for 5 min.” left out
Prepared protein samples were subjected to 6-15% SDS polyacrylamide gels and separated according to the protein concentrations. […] The protein bands were detected with an enhanced chemiluminescence kit (Millipore, Cat#WBKLS0500) using a gel imaging system (Bio-Rad, USA) for visualization and standardization of the amount of protein loaded. α-Tubulin was used as the internal control.
Self-DNA was isolated from the mouse kidney tissue using a DNeasy®Blood & Tissue Kit (QIAGEN, REF#69504) according to the manufacturer’s instructions. The isolated self-DNA were mixed with PicoGreen reagent, and then detected via employing SpectraMax iD3 microplate reader (Molecular Devices), with 502 nm incident ray and 523 nm emergent light. […]

For assay [5], the system named is AKI mice. Briefly: overall therapeutic effect in AKI mice. In kind it is in vivo, mouse. Particulars: for alleviation of AKI compared with MCC950: DNase I, disulfiram vs NLRP3 inhibitor MCC950. On the procedure:
as §2

Assay [6] concerns AKI mice. The experiment in a line: tubular injury / renal injury of AKI mice (HE histology). The assay is classed as in vivo, mouse. On the procedure:
(§3) LPS (Sigma, Cat#L2630) was dissolved in PBS to 2.5 mg/mL for one-time intraperitoneal 25 mg/kg injection; deoxyribonuclease I (DNase I, Sigma, Cat#SLBV1446) was dissolved in PBS to 1 mg/mL and injected intraperitoneally at a dose of 10 mg/kg at 4 h before cisplatin or AA I injection and every 24 h after injection. Disulfiram (MedChemExpress, CAS:97-77-8) was diluted in corn oil to 12.5 mg/mL and injected 50 mg/kg intraperitoneally every 24 h after cisplatin or AA I administration. Cu(II) (Sigma, Cat#344419) was dissolved in PBS to 30 µg/mL and administered intraperitoneally 6 h before disulfiram at a dose of 0.15 mg/kg; TNF-α (Peprotech, Cat#315-01 A) was dissolved in PBS to 10 µg/mL and injected at 100 µg/kg once through the caudal vein 24 h before cisplatin injection. […] MCC950 (MedChem Express, CAS:256373-96-3) was dissolved in PBS to 5 mg/mL and injected intraperitoneally at a dose of 50 mg/kg 12 h before cisplatin or AA I injection and every 12 h after injection; berberine (APExBIO, Cat#N1368) was dissolved in PBS to 5 mg/mL and 5 mg/kg injected intraperitoneally at 36, 24 and 12 h before cisplatin; […] To supervise the effects of various treatments on survival time and rate, the mice were observed, and survival curves were generated. To investigate the specific mechanisms, whole blood was retrieved from the orbit, serum was separated through centrifugation on the 4th day, and the mice were then sacrificed by cervical dislocation. Mice were randomly assigned in experiments, while there was no blinding during the animal experiments. Renal function was evaluated based on serum creatinine level and histological features. Serum creatinine was determined in the Clinical Pharmacology Lab, Clinical Trial Center, WCH, SCU. The kidneys were extracted from euthanized mice, immediately fixed with 4% paraformaldehyde, and embedded in paraffin. Furthermore, the samples were cut into 5 µm thick sections. These tissue samples were subjected to hematoxylin-eosin (HE) and […] according to standard protocols with HE reagent (Biosharp, Cat#BL702B, BL703B) and Masson reagent (Servicebio, Cat#G1006-100ML). The pathological changes were detected through optical microscopy, and the tubulointerstitial injury score was determined as previously reported.

The test system of assay [7] is IL-1β. Briefly: serum IL-1β of AKI mice (ELISA). Particulars: Cis or AA I AKI mice; DNase I 10 mg/kg i.p. The assay is classed as in vivo, mouse. The procedure: Aristolochic acid I sodium salt was dissolved in PBS to 1 mg/mL and injected intraperitoneally at a dose of 10 mg/kg (body weight) every 24 h for 3 days; cisplatin was dissolved in PBS to 1.5 mg/mL for one-time intraperitoneal 25 mg/kg injection; LPS (Sigma, Cat#L2630) was dissolved in PBS to 2.5 mg/mL for one-time intraperitoneal 25 mg/kg injection; deoxyribonuclease I (DNase I, Sigma, Cat#SLBV1446) was dissolved in PBS to 1 mg/mL and injected intraperitoneally at a dose of 10 mg/kg at 4 h before cisplatin or AA I injection and every 24 h after injection. Disulfiram (MedChemExpress, CAS:97-77-8) was diluted in corn oil to 12.5 mg/mL and injected 50 mg/kg intraperitoneally every 24 h after cisplatin or AA I administration. Cu(II) (Sigma, Cat#344419) was dissolved in PBS to 30 µg/mL and administered intraperitoneally 6 h before disulfiram at a dose of 0.15 mg/kg; TNF-α (Peprotech, Cat#315-01 A) was dissolved in PBS to 10 µg/mL and injected at 100 µg/kg once through the caudal vein 24 h before cisplatin injection. […]
To measure the levels of CXCL10, IFN-β, IL-1β, and IL-18, mouse serum or cell culture medium was collected and measured by ELISA (NeoBioscience, China) according to the manufacturer’s instructions.

The subject of assay [8] is AKI mice. Briefly: serum creatinine of AKI mice. The following applies: mice following injection of cisplatin; berberine 5 mg/kg i.p.; vs PBS. The assay is classed as in vivo, mouse. The procedure:
as §3

Assay [9] deals with NEK7. The following applies: cited from earlier work. An excerpt: Furthermore, we investigated the potential therapeutic medicines targeting to NEK7 and evaluated their effects on alleviating AKI. […] A ...
The test system of assay [10] is AKI mice. Briefly: renal fibrosis of AKI mice (Masson staining). The assay is classed as in vivo, mouse. Particulars: mice following injection of cisplatin; berberine 5 mg/kg i.p.; vs PBS. On the procedure:
LPS (Sigma, Cat#L2630) was dissolved in PBS to 2.5 mg/mL for one-time intraperitoneal 25 mg/kg injection; deoxyribonuclease I (DNase I, Sigma, Cat#SLBV1446) was dissolved in PBS to 1 mg/mL and injected intraperitoneally at a dose of 10 mg/kg at 4 h before cisplatin or AA I injection and every 24 h after injection. Disulfiram (MedChemExpress, CAS:97-77-8) was diluted in corn oil to 12.5 mg/mL and injected 50 mg/kg intraperitoneally every 24 h after cisplatin or AA I administration. Cu(II) (Sigma, Cat#344419) was dissolved in PBS to 30 µg/mL and administered intraperitoneally 6 h before disulfiram at a dose of 0.15 mg/kg; TNF-α (Peprotech, Cat#315-01 A) was dissolved in PBS to 10 µg/mL and injected at 100 µg/kg once through the caudal vein 24 h before cisplatin injection. […] Renal function was evaluated based on serum creatinine level and histological features. Serum creatinine was determined in the Clinical Pharmacology Lab, Clinical Trial Center, WCH, SCU. […] The pathological changes were detected through optical microscopy, and the tubulointerstitial injury score was determined as previously reported.

For the compound `Cc1ccc(S(=O)(=O)/C=C/C#N)cc1` [BAY11-7082], the “increased expression of A20, protein level” value in assay [1] (iBMDMs, ox-dsDNA90 or CDNs, BAY11-7082 1 μM, 4 h pretreated, Fig. 4l) was “almost completely inhibited the increased expression of A20 at both the mRNA and protein levels”. Further, the “increased expression of A20 under ox-DNA stimulation” value in assay [1] (ox-DNA stimulation, BAY11-7082, discussion) is “abrogated”. Moreover, the “increased expression of A20, mRNA level” value in [2] was “almost completely inhibited the increased expression of A20 at both the mRNA and protein levels”.
Take `CC(C)(O)c1coc(S(=O)(=O)NC(=O)Nc2c3c(cc4c2CCC4)CCC3)c1` [MCC950]: the survival result in assay [3] (mice treated with nephrotoxic drugs (Cis, AA I), MCC950 50 mg/kg i.p. 12 h before and every 12 h after) was “improved the survival”. Moreover, in [4], the “cleavage of GSDMD” value is on record as “significantly reduced the cleavage of GSDMD”. In assay [5] (MCC950 50 mg/kg i.p.), the “progression of AKI” value was “significantly alleviated the progression of AKI”. The “tubular injury (in words)” value in [6] (mice treated with nephrotoxic drugs (Cis, AA I), MCC950 50 mg/kg i.p.) was “attenuate tubular injury”.
Turning to deoxyribonuclease I [DNase I], the “serum level of IL-1β (in words)” value in [7] is reported as “significantly reduced serum level of IL-1β”. For the same compound, the “therapeutic effect compared to Sting-knockout mice” value in [5] (DNase I 10 mg/kg i.p. 4 h before cisplatin or AA I and every 24 h after) is recorded as “more pronounced compared to that in Sting^−/− mice”. The “alleviation of AKI compared with MCC950” value in assay [5] is recorded as “more effective in alleviating AKI than the NLRP3 inhibitor MCC950”.
As to `COc1ccc2cc3[n+](cc2c1OC)CCc1cc2c(cc1-3)OCO2` [berberine], the survival entry in [3] (mice following injection of cisplatin, berberine 5 mg/kg i.p. at 36, 24 and 12 h before, vs PBS) is “improved survival”. In addition, in assay [8], the “serum creatinine (in words)” value is reported as “decreased serum creatinine”. The “renal injury (in words)” value in [6] (mice following injection of cisplatin, berberine 5 mg/kg i.p., vs PBS) was “attenuated renal injury”. Moreover, in assay [9], the “NEK7 activity (literature)” value is reported as “inhibit NEK7 activity”. Moreover, in assay [10], the renal fibrosis entry is listed as “decreased renal fibrosis”.
Take `CCN(CC)C(=S)SSC(=S)N(CC)CC` [disulfiram, Disulfiram]: the survival result in assay [3] (Cis or AA I mice, disulfiram 50 mg/kg i.p. every 24 h, Cu(II) 0.15 mg/kg i.p. 6 h before disulfiram) was “improved survival with effects comparable to those of DNase I”. Moreover, the “alleviation of AKI compared with MCC950” value in assay [5] is “more effective in alleviating AKI than the NLRP3 inhibitor MCC950”.
